Reference: patent US20250302974A1, “LECTIN-DRUG CONJUGATES” (UNICHEM LABORATORIES LIMITED, priority 2021, published 2025)
Like-named read-outs stand apart in the source and are kept apart here.

Key:
[1] = tested on: T24 human bladder carcinoma xenograft; assay: In vivo anti-tumor potential, xenograft model (tumor volume, TGI, %T/C, body weight, survival); details: 5 mg/kg, weekly once
Method: (§1) In vivo anti-tumor potential of compound of Formula 16 was evaluated using T24 human bladder carcinoma xenograft model in mice by assessing biological endpoints such as tumor growth and tumor growth inhibition.
(§2) Thirty-five healthy female nude mice bearing T24 tumor with volume of ˜100 mm3 were selected, randomized and allocated into five groups (G1-G5, n=7 animals per group). Body weight of each mouse was recorded on the day of randomization and daily till the end of the study. The tumor size was measured weekly twice from the day of test item/reference drug/vehicle dosing till the end of the experiment. Tumor size was measured by digital caliper (MITUTOYO, Japan) by measuring length and width. Body weight and tumor volume data was statistically analysed using two-way ANOVA (Bonferroni Test). Statistical analysis was conducted using PRISM software, version 5.01.p values of <0.05 were considered as statistically significant. Percentage survival proportions were analyzed by “Kaplan Meier” method.

[2] = tested on: T24 human bladder carcinoma xenograft; assay: Histopathological investigation of tumour tissue; format: in vivo, mice; details: 5 mg/kg, weekly once
Method: (§9) Effect of compound of Formula 16 was evaluated using T24 human bladder carcinoma xenograft model.

[3] = tested on: T24 human bladder carcinoma xenograft; assay: Effect on immune system (Th1 cytokines, IgM) in xenograft model; format: in vivo, mice
Method: as §9

[4] = tested on: T24 human bladder carcinoma xenograft; assay: In vivo anti-tumor potential, T24 human bladder carcinoma xenograft model in female nude mice; details: G2, 5 mg/kg, Weekly once
Method: as §1, §2

[5] = tested on: T24 human bladder carcinoma xenograft; assay: Histopathological investigation of tumour tissue, T24 xenograft model; format: in vivo, human T24 tumor in nude mice; details: G2, 5 mg/kg, Weekly once; 'Moderately Differentiated' wrapped over two lines
Method: as §9

Th1 cytokines; IgM = assay: Effect on immune system (Th1 cytokines, IgM), T24 xenograft model; format: in vivo, mice
Method: as §9

[6] = Cytotoxic effect by MTT assay, 48 h; details: human
Method: (§3) Cells were treated with Test Items at various concentrations (0.0001 μM-10 μM) for 48 h. The cells corresponding to Positive Control group were treated with Doxorubicin at a concentration ranging from 0.1 μM-100 μM. The Untreated cells were used as Control. After 48 h of incubation, the effect of Test Items on cytotoxicity of cells was determined by MTT assay, the plates were taken out and 20 μl of 5 mg/m1 of MTT 3-(4,5-dimethythiazol-2-yl)-2,5-diphenyl tetrazolium bromide solution was added to all the wells. Cells were incubated for 3 h at 37° C. The supernatant was aspirated. 150 μl of DMSO was added to each well to dissolve formazan crystals. The absorbance of each well was then read at 540 nm using Synergy HT micro plate reader.
(§4) The % Cytotoxicity was calculated using the formula:
(§5) Where, X=Absorbance of cells treated with Test Item; R=Absorbance of Control cells (Untreated cells maintained in growth medium only).
(§6) Selectivity Index was calculated using the formula:
(§7) SI=IC50 in Normal cell/IC50 in cancer cell.
(§8) Activity scores of the Selective Index values were categorized as: • Not selective (SI value ≤1) • Moderately selective (1<SI value <5) • Selective (SI value ≥5)

AGS Stomach = assay: Cytotoxic effect by MTT assay, 48 h; details: 48 h
Method: as §3, §4, §5, §6, §7, §8

HT29 Colon = assay: Cytotoxic effect by MTT assay, 48 h; details: Homo sapiens, HT-29, 48 h
Method: as §3, §4, §5, §6, §7, §8

KB Cervix = assay: Cytotoxic effect by MTT assay, 48 h; details: 48 h
Method: as §3, §4, §5, §6, §7, §8

MDA-MB-231 Breast = assay: Cytotoxic effect by MTT assay, 48 h; details: Homo sapiens, MDA-MB-231, 48 h
Method: as §3, §4, §5, §6, §7, §8

MG-63 Bone = assay: Cytotoxic effect by MTT assay, 48 h; details: Homo sapiens, MG-63, 48 h
Method: as §3, §4, §5, §6, §7, §8

PA-1 Ovary = assay: Cytotoxic effect by MTT assay, 48 h; details: 48 h
Method: as §3, §4, §5, §6, §7, §8

PANC-1 Pancreatic = assay: Cytotoxic effect by MTT assay, 48 h; details: Homo sapiens, PANC-1, 48 h, read-out: IC50 Values
Method: as §3, §4, §5, §6, §7, §8

T24 Bladder = assay: Cytotoxic effect by MTT assay, 48 h; details: Homo sapiens, 48 h
Method: as §3, §4, §5, §6, §7, §8

U251 MG Brain = assay: Cytotoxic effect by MTT assay, 48 h; details: Homo sapiens, U-251, 48 h
Method: as §3, §4, §5, §6, §7, §8

[7] = Cytotoxic effect by MTT assay, 48 h; details: human; remark: listed apart in the source
Method: as §3, §4, §5, §6, §7, §8

A549 Lungs = assay: Cytotoxic effect by MTT assay, 48 h; details: Homo sapiens, A549, 48 h, read-out: IC50 Values
Method: as §3, §4, §5, §6, §7, §8

[8] = Cytotoxic effect by MTT assay, 48 h
Method: as §3, §4, §5

PBMC Normal = assay: Cytotoxic effect by MTT assay, 48 h; details: PBMC, 48 h, read-out: IC50 Values
Method: as §3, §4, §5

[9] = read-out: Percent cytotoxicity wrt control

N.N.[Cl][Pt][Cl] [Cisplatin]
Percent survival [1]: 100% | Tumor growth delay [1]: 10.5 days | Percent T/C Day 22 ([1]; Day 22): 59.18% | Percent TGI Day 22 ([1]; Day 22): 40.82% | Tumor volume Day 22 ([1]; Day 22): 622.6 cu · mm | Percent body weight change Day 22 ([1]; Day 22, nude mice bearing T24 tumor): 6.3% | Apoptosis [2]: Mild | Grade [2]: 2 (Grade 2 (Moderately Differentiated) - <25-50% cells anaplastic) | Grade (differentiation in words) [2]: Moderately | Immunoglobulins IgG ([3]; 5 mg/kg, i.p. (q7dX2)): 54 ng/mL | Immunoglobulins IgM ([3]; 5 mg/kg, i.p. (q7dX2)): 18 ng/mL | Th1 cytokines IFN gamma ([3]; 5 mg/kg, i.p. (q7dX2)): 80.8 pg/mL | Th1 cytokines IL-2 ([3]; 5 mg/kg, i.p. (q7dX2)): 259.3 pg/mL | Th2 cytokines IL-4 ([3]; 5 mg/kg, i.p. (q7dX2)): 60 pg/mL | Th2 cytokines IL-10 ([3]; 5 mg/kg, i.p. (q7dX2)): BLQ | IgM level ([3]; mouse, in vivo): reduction in IgM | Percent T/C Day 22 (Test/Control) [4]: 59.18% | Percent TGI Day 22 (Tumor Growth Inhibition) [4]: 40.82% | Grade (differentiation) [5]: Moderately | IFN gamma (Th1 cytokine) (Th1 cytokines; IgM; G2, 5 mg/kg, i.p. (q7dX2)): 80.8 pg/mL | IL-2 (Th1 cytokine) (Th1 cytokines; IgM; G2, 5 mg/kg, i.p. (q7dX2)): 259.3 pg/mL | IL-4 (Th2 cytokine) (Th1 cytokines; IgM; G2, 5 mg/kg, i.p. (q7dX2)): 60 pg/mL | IL-10 (Th2 cytokine) (Th1 cytokines; IgM; G2, 5 mg/kg, i.p. (q7dX2)): BLQ | IgG (Th1 cytokines; IgM; G2, 5 mg/kg, i.p. (q7dX2)): 54 ng/mL | IgM (Th1 cytokines; IgM; G2, 5 mg/kg, i.p. (q7dX2)): 18 ng/mL | IgM (Th1 cytokines; IgM; T24 xenograft model): reduction in IgM

COc1cccc2c1C(=O)c1c(O)c3c(c(O)c1C2=O)C[C@@](O)(C(=O)CO)C[C@@H]3O[C@H]1C[C@H](N)[C@H](O)[C@H](C)O1 [Doxorubicin]
cytotoxicity at 48 h, 0.1 µM [6]: -3.4% | IC50 (AGS Stomach; read-out: IC50 Values): 4.3 µM | cytotoxicity at 0.1 µM (AGS Stomach; [9]): 15.6% | cytotoxicity at 1 µM (AGS Stomach; [9]): 72.4% | cytotoxicity at 10 µM (AGS Stomach; [9]): 74.5% | cytotoxicity at 50 µM (AGS Stomach; [9]): 74.8% | cytotoxicity at 100 µM (AGS Stomach; [9]): 79% | IC50 (HT29 Colon; read-out: IC50 Values): 35.3 µM | cytotoxicity at 0.1 µM (HT29 Colon; [9]): 3.2% | cytotoxicity at 1 µM (HT29 Colon; [9]): 1.7% | cytotoxicity at 10 µM (HT29 Colon; [9]): 32.7% | cytotoxicity at 50 µM (HT29 Colon; [9]): 61.9% | cytotoxicity at 100 µM (HT29 Colon; [9]): 59.8% | IC50 (KB Cervix; read-out: IC50 Values): 0.6 µM | cytotoxicity at 0.1 µM (KB Cervix; [9]): 28.7% | cytotoxicity at 1 µM (KB Cervix; [9]): 53.1% | cytotoxicity at 10 µM (KB Cervix; [9]): 95.7% | cytotoxicity at 50 µM (KB Cervix; [9]): 91.7% | cytotoxicity at 100 µM (KB Cervix; [9]): 84.2% | IC50 (MDA-MB-231 Breast; read-out: IC50 Values): 2.1 µM | cytotoxicity at 0.1 µM (MDA-MB-231 Breast; [9]): 3.4% | cytotoxicity at 1 µM (MDA-MB-231 Breast; [9]): 68% | cytotoxicity at 10 µM (MDA-MB-231 Breast; [9]): 74.3% | cytotoxicity at 50 µM (MDA-MB-231 Breast; [9]): 71.3% | cytotoxicity at 100 µM (MDA-MB-231 Breast; [9]): 58% | IC50 (MG-63 Bone; read-out: IC50 Values): 0.4 µM | cytotoxicity at 0.1 µM (MG-63 Bone; [9]): 35.3% | cytotoxicity at 1 µM (MG-63 Bone; [9]): 60.7% | cytotoxicity at 10 µM (MG-63 Bone; [9]): 82% | cytotoxicity at 50 µM (MG-63 Bone; [9]): 85.5% | cytotoxicity at 100 µM (MG-63 Bone; [9]): 75.5% | IC50 (PA-1 Ovary; read-out: IC50 Values): 1 µM | cytotoxicity at 0.1 µM (PA-1 Ovary; [9]): 19.6% | cytotoxicity at 1 µM (PA-1 Ovary; [9]): 62.6% | cytotoxicity at 10 µM (PA-1 Ovary; [9]): 73.2% | cytotoxicity at 50 µM (PA-1 Ovary; [9]): 79% | cytotoxicity at 100 µM (PA-1 Ovary; [9]): 71.5% | IC50 (PANC-1 Pancreatic): 8.2 µM | IC50 (T24 Bladder; read-out: IC50 Values): 5.5 µM | cytotoxicity at 0.1 µM (T24 Bladder; [9]): 21% | cytotoxicity at 1 µM (T24 Bladder; [9]): 34.8% | cytotoxicity at 10 µM (T24 Bladder; [9]): 72.8% | cytotoxicity at 50 µM (T24 Bladder; [9]): 66.6% | cytotoxicity at 100 µM (T24 Bladder; [9]): 52.7% | IC50 (U251 MG Brain; read-out: IC50 Values): 8.1 µM | cytotoxicity at 0.1 µM (U251 MG Brain; [9]): -13.5% | cytotoxicity at 1 µM (U251 MG Brain; [9]): 41.7% | cytotoxicity at 10 µM (U251 MG Brain; [9]): 57.9% | cytotoxicity at 50 µM (U251 MG Brain; [9]): 71% | cytotoxicity at 100 µM (U251 MG Brain; [9]): 65.6% | cytotoxicity at 48 h, 0.1 µM [7]: 3.3% | IC50 (A549 Lungs): 11 µM | cytotoxicity at 48 h, 0.1 µM [8]: 5.3% | cytotoxicity at 48 h, 1 µM [8]: 29.3% | cytotoxicity at 48 h, 10 µM [8]: 37.4% | cytotoxicity at 48 h, 50 µM [8]: 40.5% | cytotoxicity at 48 h, 100 µM [8]: 37.1% | IC50 (PBMC Normal): > 100 µM
